Literature values as cited in article PMC13015236 (Journal of Pharmaceutical Analysis, 2025).

What was measured:
[1] = patients
[2] = system: non-small cell lung cancer (NSCLC); details: NSCLC patients

| Substance | objective response rate (ORR) [1] [%] | objective response rate (ORR) [2] [%] |
| --- | --- | --- |
| tiragolumab | 21 |  |
| atezolizumab | 24 | 16.2 |
